Results published in ChEMBL document CHEMBL4699561, “Cytotoxic Germacranolides from the Whole Plant of Carpesium minus” (J Nat Prod, 2020).

Columns and labels:
MDA-MB-231 = assay: Cytotoxicity against human MDA-MB-231 cells assessed as reduction in cell viability by MTT assay; format: functional, cell-based
HCT-116 [1] = assay: Cytotoxicity against human HCT-116 cells assessed as reduction in cell viability by MTT assay; format: functional, cell-based
A549 = assay: Cytotoxicity against human A549 cells assessed as reduction in cell viability by MTT assay; format: functional, cell-based
HCT-116 [2] = assay: Induction of apoptosis in human HCT-116 cells assessed as necrotic cells at 16 uM after 24 hrs by Annexin V-FITC/propidium iodide staining based flow cytometric analysis (reference value: 0.4%); format: functional
HCT-116 [3] = assay: Induction of apoptosis in human HCT-116 cells assessed as early apoptotic cells at 16 uM after 24 hrs by Annexin V-FITC/propidium iodide staining based flow cytometric analysis (reference value: 5.3%); format: functional
HCT-116 [4] = assay: Induction of apoptosis in human HCT-116 cells assessed as early apoptotic cells at 4 uM after 24 hrs by Annexin V-FITC/propidium iodide staining based flow cytometric analysis (reference value: 5.3%); format: functional
HCT-116 [5] = assay: Induction of apoptosis in human HCT-116 cells assessed as viable cells at 4 uM after 24 hrs by Annexin V-FITC/propidium iodide staining based flow cytometric analysis (reference value: 87.8%); format: functional; settings: read-out: Activity
HCT-116 [6] = assay: Induction of apoptosis in human HCT-116 cells assessed as necrotic cells at 4 uM after 24 hrs by Annexin V-FITC/propidium iodide staining based flow cytometric analysis (reference value: 0.4%); format: functional
HCT-116 [7] = assay: Induction of apoptosis in human HCT-116 cells assessed as increase in cleaved-PARP protein expression after 24 hrs by Western blot analysis; format: functional, cell-based; settings: dose microM 4-16, time 24.0 hrs
HCT-116 [8] = assay: Induction of apoptosis in human HCT-116 cells assessed as late apoptotic cells at 4 uM after 24 hrs by Annexin V-FITC/propidium iodide staining based flow cytometric analysis (reference value: 6.5%); format: functional
HCT-116 [9] = assay: Induction of apoptosis in human HCT-116 cells assessed as viable cells at 8 uM after 24 hrs by Annexin V-FITC/propidium iodide staining based flow cytometric analysis (reference value: 87.8%); format: functional; settings: read-out: Activity
HCT-116 [10] = assay: Induction of apoptosis in human HCT-116 cells assessed as increase in cleaved-caspace-3 protein expression after 24 hrs by Western blot analysis; format: functional, cell-based; settings: dose microM 4-16, time 24.0 hrs
HCT-116 [11] = assay: Induction of apoptosis in human HCT-116 cells assessed as late apoptotic cells at 16 uM after 24 hrs by Annexin V-FITC/propidium iodide staining based flow cytometric analysis (reference value: 6.5%); format: functional
HCT-116 [12] = assay: Induction of apoptosis in human HCT-116 cells assessed as necrotic cells at 8 uM after 24 hrs by Annexin V-FITC/propidium iodide staining based flow cytometric analysis (reference value: 0.4%); format: functional
HCT-116 [13] = assay: Induction of apoptosis in human HCT-116 cells assessed as late apoptotic cells at 8 uM after 24 hrs by Annexin V-FITC/propidium iodide staining based flow cytometric analysis (reference value: 6.5%); format: functional
HCT-116 [14] = assay: Induction of apoptosis in human HCT-116 cells assessed as increase in cleaved-caspace-7 protein expression after 24 hrs by Western blot analysis; format: functional, cell-based; settings: dose microM 4-16, time 24.0 hrs
HCT-116 [15] = assay: Induction of apoptosis in human HCT-116 cells assessed as apoptotic cells after 24 hrs by Annexin V-FITC/propidium iodide staining based flow cytometric analysis; format: functional, cell-based; settings: dose microM 4-16, time 24.0 hrs
HCT-116 [16] = assay: Induction of apoptosis in human HCT-116 cells assessed as early apoptotic cells at 8 uM after 24 hrs by Annexin V-FITC/propidium iodide staining based flow cytometric analysis (reference value: 5.3%); format: functional
HCT-116 [17] = assay: Induction of apoptosis in human HCT-116 cells assessed as viable cells at 16 uM after 24 hrs by Annexin V-FITC/propidium iodide staining based flow cytometric analysis (reference value: 87.8%); format: functional; settings: read-out: Activity

Compound | IC50 (MDA-MB-231) [µM] | IC50 (HCT-116 [1]) [µM] | IC50 (A549) [µM] | further results
C=C1C(=O)O[C@@H]2[C@@H](OC(=O)C(C)C)[C@@](C)(O)C[C@H]3C[C@@H](C)[C@@](O)(C[C@@H]12)O3 | > 50 | 20.2 | > 50 | –
C=C1C(=O)O[C@@H]2[C@@H](OC(=O)[C@@H](C)CC)[C@@](C)(O)C[C@H]3C[C@@H](C)[C@@](O)(C[C@@H]12)O3 | 23.7 | 14 | 24.3 | –
C=C1C(=O)O[C@@H]2[C@@H](OC(=O)[C@H](C)CC)[C@@](C)(O)C[C@H]3C[C@@H](C)[C@@](O)(C[C@@H]12)O3 | 48.9 | 21.4 | 37.6 | –
C=C1C(=O)O[C@@H]2[C@@H](OC(=O)C(C)C)[C@@](C)(O)CCC[C@@H](C)C(=O)C[C@@H]12 | 11.6 | 8.5 | 26.6 | –
C=C1C(=O)O[C@@H]2[C@@H](OC(=O)[C@@H](C)CC)[C@@](C)(O)CCC[C@@H](C)C(=O)C[C@@H]12 | 14.6 | 6.7 | 31.9 | –
C=C1C(=O)O[C@@H]2[C@@H](OC(=O)CC(C)C)[C@@](C)(O)C[C@H]3C[C@@H](C)[C@@](O)(C[C@@H]12)O3 | 27.9 | 17.2 | 24.5 | –
C=C1C(=O)O[C@@H]2[C@@H](OC(=O)[C@H](C)CC)[C@@](C)(O)CCC[C@@H](C)C(=O)C[C@@H]12 | 10.6 | 5.3 | 24.7 | –
C=C1C(=O)O[C@@H]2[C@@H](OC(=O)/C(C)=C\C)[C@@](C)(O)CCC[C@@H](C)C(=O)C[C@@H]12 | 4.7 | 3.2 | 14.1 | –
C=C1C(=O)O[C@@H]2[C@@H](OC(=O)CC(C)C)[C@@](C)(O)CCC[C@@H](C)C(=O)C[C@@H]12 | 6.1 | 3.7 | 8.4 | Activity (HCT-116 [2]): 0.6%; Activity (HCT-116 [3]): 10.5%; Activity (HCT-116 [4]): 5.2%; viability at 4 µM (HCT-116 [5]): 87.1%; Activity (HCT-116 [6]): 0.4%; Activity (HCT-116 [7]): Dose-dependent effect; Activity (HCT-116 [8]): 7.3%; viability at 8 µM (HCT-116 [9]): 83.8%; Activity (HCT-116 [10]): Dose-dependent effect; Activity (HCT-116 [11]): 15%; Activity (HCT-116 [12]): 0.6%; Activity (HCT-116 [13]): 8.3%; Activity (HCT-116 [14]): Dose-dependent effect; Activity (HCT-116 [15]): Dose-dependent effect; Activity (HCT-116 [16]): 7.3%; viability at 16 µM (HCT-116 [17]): 73.9%
C=C1C(=O)O[C@@H]2[C@@H](OC(=O)/C(C)=C\C)[C@@](C)(O)C[C@H]3C[C@@H](C)[C@@](O)(C[C@@H]12)O3 | 23.4 | 17.8 | 17.3 | –
